Data from ChEMBL document CHEMBL5104137, “The overview of Mitogen-activated extracellular signal-regulated kinase (MEK)-based dual inhibitor in the treatment of cancers” (Bioorg Med Chem, 2022).

Columns and labels:
[1] = Cmax in BomTac:NMRI-Foxn1 mouse xenografted with human Calu6 cells harboring KRAS Q61K mutant at 70 mg/kg per week, po via gavage by electrochemo-luminescence analysis; assay type: ADME, organism-based, Calu-6; parameters: dose 70 mg/kg, route po; conditions: in vivo
Aurora kinase B-B = Aurora kinase B-B (Xenopus laevis, UniProt Q6GPL3); assay: Inhibition of Xenopus laevis Aurora Kinase B
Sequence of Aurora kinase B-B (Q6GPL3 whole entry): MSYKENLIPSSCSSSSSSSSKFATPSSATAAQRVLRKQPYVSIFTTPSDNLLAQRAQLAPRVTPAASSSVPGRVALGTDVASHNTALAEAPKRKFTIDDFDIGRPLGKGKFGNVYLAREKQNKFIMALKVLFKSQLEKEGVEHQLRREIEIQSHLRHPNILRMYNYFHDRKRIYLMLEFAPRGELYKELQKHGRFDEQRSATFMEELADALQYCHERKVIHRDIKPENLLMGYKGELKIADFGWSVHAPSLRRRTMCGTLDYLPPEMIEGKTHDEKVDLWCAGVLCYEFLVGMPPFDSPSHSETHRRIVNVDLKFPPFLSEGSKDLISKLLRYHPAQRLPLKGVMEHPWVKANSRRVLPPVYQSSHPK

[2] = Inhibition of Xenopus laevis Aurora Kinase C
[3] = Cmax in BomTac:NMRI-Foxn1 mouse xenografted with human Calu6 cells harboring KRAS Q61K mutant at 10 mg/kg per day, po via gavage by electrochemo-luminescence analysis; assay type: ADME, organism-based, Calu-6; parameters: dose 10 mg/kg, route po; conditions: in vivo
[4] = Cmax in BomTac:NMRI-Foxn1 mouse xenografted with human Calu6 cells harboring KRAS Q61K mutant at 10 mg/kg per day, po via gavage measured after 24 hrs by electrochemo-luminescence analysis; assay type: ADME, organism-based, Calu-6; parameters: time 24 hrs, dose 10 mg/kg, route po; conditions: in vivo
[5] = Cmax in BomTac:NMRI-Foxn1 mouse xenografted with human Calu6 cells harboring KRAS Q61K mutant at 70 mg/kg per week, po via gavage measured after 24 hrs by electrochemo-luminescence analysis; assay type: ADME, organism-based, Calu-6; parameters: dose 70 mg/kg, time 24 hrs, route po; conditions: in vivo
MIA PaCa-2 = assay: Antiproliferative activity against human MIA PaCa-2 cells harboring […] mutant assessed as cell growth inhibition measured after 72 hrs by WST-8 assay; assay type: functional, cell-based; conditions: MIA PaCa-2, 72 h
HCT-116 = assay: Antiproliferative activity against human HCT-116 cells harboring […] mutant assessed as cell growth inhibition measured after 72 hrs by WST-8 assay; assay type: functional, cell-based; conditions: HCT-116, 72 h
[6] = molecular target: Serine/threonine-protein kinase B-raf (Homo sapiens, UniProt P15056); assay: Inhibition of wild type human BRAF using 5-Fl-SGQLIDSMANSFV-NH2 peptide as substrate by FRET assay
Sequence of Serine/threonine-protein kinase B-raf (Homo sapiens, UniProt P15056) (P15056 whole entry): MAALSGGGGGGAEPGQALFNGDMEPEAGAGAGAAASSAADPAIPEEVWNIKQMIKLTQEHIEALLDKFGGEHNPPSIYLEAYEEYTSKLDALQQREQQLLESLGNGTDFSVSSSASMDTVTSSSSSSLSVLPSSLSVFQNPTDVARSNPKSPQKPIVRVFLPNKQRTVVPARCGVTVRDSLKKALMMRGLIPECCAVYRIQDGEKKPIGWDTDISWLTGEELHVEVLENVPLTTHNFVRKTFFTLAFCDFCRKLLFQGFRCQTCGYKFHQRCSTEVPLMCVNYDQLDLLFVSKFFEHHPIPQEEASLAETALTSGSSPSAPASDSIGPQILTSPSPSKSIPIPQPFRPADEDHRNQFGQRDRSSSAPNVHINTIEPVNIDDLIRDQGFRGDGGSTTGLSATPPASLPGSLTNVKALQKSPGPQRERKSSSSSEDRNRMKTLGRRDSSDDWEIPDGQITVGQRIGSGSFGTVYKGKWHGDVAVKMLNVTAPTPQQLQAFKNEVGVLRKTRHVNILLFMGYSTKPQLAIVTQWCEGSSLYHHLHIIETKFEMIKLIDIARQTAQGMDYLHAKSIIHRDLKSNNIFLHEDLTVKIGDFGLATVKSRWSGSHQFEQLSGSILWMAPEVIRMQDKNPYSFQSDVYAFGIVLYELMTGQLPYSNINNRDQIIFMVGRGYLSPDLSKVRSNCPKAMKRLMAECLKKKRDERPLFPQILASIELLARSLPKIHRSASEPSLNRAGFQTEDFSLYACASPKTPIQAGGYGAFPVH

[7] = molecular target: Serine/threonine-protein kinase B-raf (Homo sapiens, UniProt P15056, V600E); assay: Inhibition of human BRAF V600E mutant using 5-Fl-SGQLIDSMANSFV-NH2 peptide as substrate by FRET assay
Sequence of Serine/threonine-protein kinase B-raf (Homo sapiens, UniProt P15056, V600E) (P15056 2-766 V600E limits assumed): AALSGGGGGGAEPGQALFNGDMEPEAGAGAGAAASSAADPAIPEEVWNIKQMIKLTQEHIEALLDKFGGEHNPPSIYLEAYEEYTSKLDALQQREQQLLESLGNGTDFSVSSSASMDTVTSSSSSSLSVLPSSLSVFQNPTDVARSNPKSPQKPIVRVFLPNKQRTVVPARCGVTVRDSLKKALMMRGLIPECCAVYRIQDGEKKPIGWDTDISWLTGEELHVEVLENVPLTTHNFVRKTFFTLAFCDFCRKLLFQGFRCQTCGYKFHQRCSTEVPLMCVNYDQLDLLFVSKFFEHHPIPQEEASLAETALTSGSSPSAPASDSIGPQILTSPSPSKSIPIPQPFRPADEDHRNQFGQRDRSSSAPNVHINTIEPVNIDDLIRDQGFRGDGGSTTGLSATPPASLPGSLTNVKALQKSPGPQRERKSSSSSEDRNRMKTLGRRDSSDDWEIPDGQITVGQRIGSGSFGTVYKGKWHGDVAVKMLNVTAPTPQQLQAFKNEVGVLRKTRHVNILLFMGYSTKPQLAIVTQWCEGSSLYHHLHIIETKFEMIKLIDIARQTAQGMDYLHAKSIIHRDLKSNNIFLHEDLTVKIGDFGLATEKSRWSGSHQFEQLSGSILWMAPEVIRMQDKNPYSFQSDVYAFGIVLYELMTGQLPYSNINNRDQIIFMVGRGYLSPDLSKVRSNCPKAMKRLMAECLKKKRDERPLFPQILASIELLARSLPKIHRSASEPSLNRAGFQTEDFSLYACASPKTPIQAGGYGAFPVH

[8] = Inhibition of human MEK using 5-Fl-SGQLIDSMANSFV-NH2 peptide as substrate by FRET assay
[9] = Antiproliferative activity against human CT-TC cells harboring HRAS Q61K mutant assessed as cell growth inhibition measured after 72 hrs by WST-8 assay; assay type: functional, cell-based
SK-MEL-2 = assay: Antiproliferative activity against human SK-MEL-2 cells harboring NRAS Q61R mutant assessed as cell growth inhibition measured after 72 hrs by WST-8 assay; assay type: functional, cell-based; conditions: SK-MEL-2, 72 h
SW480 = assay: Antiproliferative activity against human SW480 cells harboring […] mutant assessed as cell growth inhibition measured after 72 hrs by WST-8 assay; assay type: functional, cell-based; conditions: SW480, 72 h
SK-MEL-28 = assay: Antiproliferative activity against human SK-MEL-28 cells harboring BRAF V600E mutant assessed as cell growth inhibition measured after 72 hrs by WST-8 assay; assay type: functional, cell-based; conditions: SK-MEL-28, 72 h
MV4-11 = assay: Antiproliferative activity against human MV4-11 cells harboring FLT3-ITD mutant assessed as cell growth inhibition by trypan blue staining based assay; assay type: functional
BaF3 [10] = assay: Antiproliferative activity against […] cells harboring D835G mutant assessed as cell growth inhibition by trypan blue staining based assay; assay type: functional; conditions: Mus musculus
BaF3 [11] = assay: Antiproliferative activity against […] cells harboring D835Y mutant assessed as cell growth inhibition by trypan blue staining based assay; assay type: functional; conditions: Mus musculus
MOLM-13 = assay: Antiproliferative activity against human MOLM13 cells harboring FLT3-ITD mutant assessed as cell growth inhibition by Trypan blue staining based assay; assay type: functional

Work on `CCNC(=O)C#Cc1ccc2c(c1)NC(=O)/C2=C(\Nc1ccc(CN(C)C)cc1)c1ccccc1` yielded a Cmax [1] of 2700 nM, an IC50 (Aurora kinase B-B) of 3 nM and an IC50 [2] of 15 nM. For the same compound, the Cmax [3] was 380 nM, the Cmax [4] was 13 nM and the Cmax [5] was 460 nM.

Work on `CNS(=O)(=O)Nc1nccc(Cc2c(C)c3ccc(Oc4ncccn4)cc3oc2=O)c1F` [AVUTOMETINIB] yielded an IC50 (MIA PaCa-2) of 40 nM, an IC50 (HCT-116) of 277 nM and an IC50 [6] of 19 nM. The IC50 [7] was 8.2 nM, the IC50 [8] was 160 nM and the IC50 [9] was 360 nM. It also gave an IC50 (SK-MEL-2) of 28 nM, an IC50 (SW480) of 46 nM and an IC50 (SK-MEL-28) of 65 nM.

Compound `CCNc1cc(O)c2c(c1)/C=C/C[C@H](O)[C@H](O)C(=O)/C=C\[C@@H](C)[C@H](C)OC2=O` [E-6201] has an IC50 (MV4-11) of 2 nM, an IC50 (BaF3 [10]) of 4.6 nM and an IC50 (BaF3 [11]) of 26 nM. It also gave an IC50 (MOLM-13) of 5 nM.
